Results from patent publication US20260285850A1, “SUBSTITUTED OXAZOLIDINONES AND IMIDAZOLINONES AS HERBICIDES” (FMC CORPORATION, priority 2023, published 2026).

Columns and labels:
Format in all cases: in vivo
[1] = tested on: horseweed (Erigeron canadensis); experiment: Test A postemergence application, visual injury rating 0-100
Method in brief: (§1)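 Directed preemergence spray onto seeded soil or postemergence spray onto 2-10 cm plants (loam plus sand); compound carried in surfactant-containing non-phytotoxic solvent. Injury rated by eye after 10 d greenhouse growth; 0 = no effect, 100 = complete control.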

[2] = tested on: oat, wild (wild oat, Avena fatua); experiment: as above
Method in brief: as §1

[3] = tested on: corn (Zea mays); experiment: as above
Method in brief: as §1

[4] = tested on: barnyardgrass (Echinochloa crus-galli); experiment: as above
Method in brief: as §1

[5] = tested on: soybean (Glycine max); experiment: as above
Method in brief: as §1

[6] = tested on: ragweed (common ragweed, Ambrosia artemisiifolia); experiment: as above
Method in brief: as §1

[7] = tested on: green foxtail (Setaria viridis); experiment: as above
Method in brief: as §1

[8] = tested on: blackgrass (Alopecurus myosuroides); experiment: as above
Method in brief: as §1

[9] = tested on: wheat (Triticum aestivum); experiment: as above
Method in brief: as §1

[10] = tested on: palmer (palmer amaranth, palmer pigweed, Amaranthus palmeri); experiment: as above
Method in brief: as §1

[11] = tested on: kochia (Bassia scoparia); experiment: as above
Method in brief: as §1

[12] = tested on: ryegrass, Italian (italian ryegrass, Lolium multiflorum); experiment: as above
Method in brief: as §1

[13] = tested on: galium (catchweed bedstraw, Galium aparine); experiment: as above
Method in brief: as §1

[14] = tested on: sedge, umbrella (small-flower umbrella sedge, Cyperus difformis); experiment: Test B flooded paddy test, visual plant response rating 0-100; details: 250 g ai/ha, Flood, applied to paddy water, evaluated after 13 days
Method in brief: (§2)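 Plants were grown to the 2-leaf stage, then pots were flooded to 3 cm above the soil and compound was applied directly to the paddy water, with that depth kept throughout.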

[15] = tested on: ducksalad (Heteranthera limosa); experiment: as above; details: 250 g ai/ha, Flood, applied to paddy water, evaluated after 13 days
Method in brief: as §2

[16] = tested on: rice (Oryza sativa); experiment: as above; details: 250 g ai/ha, Flood, applied to paddy water, evaluated after 13 days
Method in brief: as §2

[17] = tested on: barnyardgrass (Echinochloa crusgalli); experiment: as above; details: 250 g ai/ha, Flood, applied to paddy water, evaluated after 13 days
Method in brief: as §2

[18] = tested on: oat, wild (wild oat, Avena fatua); experiment: Test A preemergence soil spray, visual injury rating 0-100; details: 10 days
Method in brief: as §1

[19] = tested on: corn (Zea mays); experiment: as above; details: 10 days
Method in brief: as §1

[20] = tested on: barnyardgrass (Echinochloa crus-galli); experiment: as above; details: 10 days
Method in brief: as §1

[21] = tested on: soybean (Glycine max); experiment: as above; details: 10 days
Method in brief: as §1

[22] = tested on: ragweed (common ragweed, Ambrosia artemisiifolia); experiment: as above; details: 10 days
Method in brief: as §1

[23] = tested on: green foxtail (Setaria viridis); experiment: as above; details: 10 days
Method in brief: as §1

[24] = tested on: blackgrass (Alopecurus myosuroides); experiment: as above; details: 10 days
Method in brief: as §1

[25] = tested on: wheat (Triticum aestivum); experiment: as above; details: 10 days
Method in brief: as §1

[26] = tested on: palmer (palmer amaranth, palmer pigweed, Amaranthus palmeri); experiment: as above; details: 10 days
Method in brief: as §1

[27] = tested on: kochia (Bassia scoparia); experiment: as above; details: 10 days
Method in brief: as §1

[28] = tested on: ryegrass, Italian (italian ryegrass, Lolium multiflorum); experiment: as above; details: 10 days
Method in brief: as §1

[29] = 62 g ai/ha, postemergence, 10 days, 0 = no effect, 100 = complete control
[30] = Postemergence, 16 g ai/ha, greenhouse 10 days, 0 no effect, 100 complete control
[31] = 62 g ai/ha, 0 = no effect, 100 = complete control

SMILES: CC1(C(=O)NC2CC=C(C(=O)O)C2)CN(c2cc(F)cc(F)c2)C(=O)O1 (stereo not shown) [Compound 94]
- Horseweed plant response rating (0-100) [1, 29]: 60
- Horseweed plant response rating (0 to 100 scale) [1, 30]: 20
- Oat, Wild plant response rating (0-100) [2, 29]: 90
- Oat, Wild plant response rating (0 to 100 scale) [2, 30]: 40
- Corn plant response rating (0-100) [3, 29]: 100
- Corn plant response rating (0 to 100 scale) [3, 30]: 100
- Barnyardgrass plant response rating (0-100) [4, 29]: 100
- Barnyardgrass plant response rating (0 to 100 scale) [4, 30]: 100
- Soybean plant response rating (0-100) [5, 29]: 70
- Soybean plant response rating (0 to 100 scale) [5, 30]: 60
- Ragweed plant response rating (0-100) [6, 29]: 50
- Ragweed plant response rating (0 to 100 scale) [6, 30]: 50
- Foxtail, Green plant response rating (0-100) [7, 29]: 90
- Foxtail, Green plant response rating (0 to 100 scale) [7, 30]: 60
- Blackgrass plant response rating (0-100) [8, 29]: 90
- Blackgrass plant response rating (0 to 100 scale) [8, 30]: 80
- Wheat plant response rating (0-100) [9, 29]: 90
- Wheat plant response rating (0 to 100 scale) [9, 30]: 60
- Pigweed, Palmer plant response rating (0-100) [10, 29]: 90
- Pigweed, Palmer plant response rating (0 to 100 scale) [10, 30]: 50
- Kochia plant response rating (0-100) [11, 29]: 90
- Kochia plant response rating (0 to 100 scale) [11, 30]: 80
- Ryegrass, Italian plant response rating (0-100) [12, 29]: 90
- Ryegrass, Italian plant response rating (0 to 100 scale) [12, 30]: 70
- Galium plant response rating (0-100) [13, 29]: 90
- Galium plant response rating (0 to 100 scale) [13, 30]: 70
- Plant response rating, Sedge, Umbrella (0 to 100 scale, 0 is no effect and 100 is complete control) [14]: 95
- Plant response rating, Ducksalad (0 to 100 scale, 0 is no effect and 100 is complete control) [15]: 95
- Plant response rating, Rice (0 to 100 scale, 0 is no effect and 100 is complete control) [16]: 75
- Plant response rating, Barnyardgrass (0 to 100 scale, 0 is no effect and 100 is complete control) [17]: 95
- Oat, Wild plant response rating ([18]; 16 g ai/ha, 0 to 100 scale): 10
- Oat, Wild plant response rating (0-100) [18, 31]: 50
- Corn plant response rating ([19]; 16 g ai/ha, 0 to 100 scale): 40
- Corn plant response rating (0-100) [19, 31]: 80
- Barnyardgrass plant response rating ([20]; 16 g ai/ha, 0 to 100 scale): 40
- Barnyardgrass plant response rating (0-100) [20, 31]: 100
- Soybean plant response rating ([21]; 16 g ai/ha, 0 to 100 scale): 10
- Soybean plant response rating (0-100) [21, 31]: 30
- Ragweed plant response rating ([22]; 16 g ai/ha, 0 to 100 scale): 20
- Ragweed plant response rating (0-100) [22, 31]: 40
- Foxtail, Green plant response rating ([23]; 16 g ai/ha, 0 to 100 scale): 10
- Foxtail, Green plant response rating (0-100) [23, 31]: 90
- Blackgrass plant response rating ([24]; 16 g ai/ha, 0 to 100 scale): 30
- Blackgrass plant response rating (0-100) [24, 31]: 60
- Wheat plant response rating ([25]; 16 g ai/ha, 0 to 100 scale): 60
- Wheat plant response rating (0-100) [25, 31]: 90
- Pigweed, Palmer plant response rating ([26]; 16 g ai/ha, 0 to 100 scale): 20
- Pigweed, Palmer plant response rating (0-100) [26, 31]: 60
- Kochia plant response rating ([27]; 16 g ai/ha, 0 to 100 scale): 0
- Kochia plant response rating (0-100) [27, 31]: 90
- Ryegrass, Italian plant response rating ([28]; 16 g ai/ha, 0 to 100 scale): 60
- Ryegrass, Italian plant response rating (0-100) [28, 31]: 70
